Measured values published in patent publication US20260014153A1, “ELACESTRANT IN COMBINATION WITH ABEMACICLIB IN WOMEN WITH BREAST CANCER” (RADIUS PHARMACEUTICALS, INC., priority 2018, published 2026).

Assays:
[1] = half life after PO dosing; assay type: in vivo; conditions: humans
[2] = test system: uterine tissues; assay: estradiol stimulation of uterine tissues in ovariectomized rats; assay type: in vivo
[3] = test system: tumors expressing Y537S ERα; assay: growth of tumors expressing mutant ERα; assay type: in vivo
[4] = bone loss in ovariectomized rats; assay type: in vivo
[5] = test system: ER+ breast cancer; conditions: monotherapy; models including fulvestrant-insensitive, estrogen-independent and/or ESR1-mutant; cited from earlier work
[6] = biological target: T1, ER in the uterus and pituitary (Homo sapiens, UniProt P03372); assay: estradiol binding to ER by FES-PET imaging; assay type: in vivo; conditions: uterine and pituitary tissue
T1 construct: from tissue; host or cells: uterus and pituitary, in vivo
T1 sequence (P03372 1-595): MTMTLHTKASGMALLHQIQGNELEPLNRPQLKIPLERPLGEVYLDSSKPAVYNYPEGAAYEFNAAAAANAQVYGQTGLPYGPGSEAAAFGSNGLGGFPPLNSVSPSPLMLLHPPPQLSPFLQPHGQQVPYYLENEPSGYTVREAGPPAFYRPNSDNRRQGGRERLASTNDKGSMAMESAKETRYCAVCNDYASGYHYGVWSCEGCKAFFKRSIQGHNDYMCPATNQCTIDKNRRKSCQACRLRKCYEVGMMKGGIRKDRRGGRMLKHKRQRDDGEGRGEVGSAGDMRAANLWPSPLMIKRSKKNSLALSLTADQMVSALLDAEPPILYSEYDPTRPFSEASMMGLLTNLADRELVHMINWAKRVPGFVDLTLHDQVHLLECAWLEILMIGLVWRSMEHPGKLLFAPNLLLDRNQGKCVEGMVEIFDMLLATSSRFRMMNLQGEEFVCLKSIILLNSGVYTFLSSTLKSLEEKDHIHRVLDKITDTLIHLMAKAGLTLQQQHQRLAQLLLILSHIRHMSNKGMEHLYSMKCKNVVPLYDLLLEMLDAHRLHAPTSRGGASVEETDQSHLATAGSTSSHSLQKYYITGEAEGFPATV
Method: In these experiments, estradiol binding to ER in uterine and pituitary tissue was evaluated by FES-PET imaging.

[7] = test system: breast cancer tumor; assay: animal xenograft model of breast cancer; conditions: in vivo
[8] = test system: brain metastasis xenograft; assay: brain metastasis xenograft model; conditions: in vivo
[9] = biological target: T2, ERα (Homo sapiens, UniProt P03372); conditions: cited from earlier work
T2 sequence (P03372 1-595): T1 sequence (P03372 1-595)

[10] = test system: ER+ breast cancer with both wild-type and mutant ESR1; conditions: models of ER+ breast cancer, single agent and in combination with a CDK4/6 inhibitor; cited from earlier work
[11] = standardized uptake value in tissues not significantly expressing ER; assay type: in vivo, human; conditions: 200 mg or up to 500 mg q.d.; uterus, muscle, bone tissues not significantly expressing ER
[12] = test system: tumors expressing wild-type ERα; assay: growth of tumors expressing wild-type ERα; assay type: in vivo

- half life [1]: surprisingly long half life
- observed level of ER binding after treatment [6]: at or below background levels
- accumulation within tumor cells [7]: significant accumulation
- change in standardized uptake value (SUV) pre- and post-treatment [11]: hardly any changes
Structure (SMILES): CCNCCc1ccc(CN(CC)c2cc(OC)ccc2[C@@H]2CCc3cc(O)ccc3C2)cc1 [RAD1901]
- estradiol stimulation of uterine tissues [2]: antagonized estradiol stimulation
- inhibition of tumor growth [3]: unexpected ability to inhibit the growth of tumors
- bone loss [4]: protects against bone loss
- antitumor activity [5]: demonstrated antitumor activity
- breast cancer tumor growth [7]: inhibiting breast cancer tumor growth
- blood-brain barrier penetration [8]: capable of penetrating the blood-brain barrier
- survival [8]: significantly prolonged survival
- binding preference ERα versus ERβ [9]: preferentially bind ERα
- inhibition of tumor growth [10]: effective in inhibiting tumor growth
- inhibition of tumor growth [12]: inhibit tumor growth
